The results in this text go back to patent publication US9783527B2, “Indazole ureas and method of use” (AbbVie Inc., priority 2014, dated 2017).

Each structure is given as a SMILES string.

By IC50 is commonly meant the concentration that inhibits the measured activity by half.

The target in this assay is human Nav1.7 (Homo sapiens (Human), UniProt Q15858). Description: FRET-based membrane potential assay, recombinant human sodium channel Nav1.7. It is filed as cell-based. Particulars: HEK293 cells stably expressing recombinant human Nav1.7; depolarization with veratridine (EC80) + scorpion venom. A digest of the protocol: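 IC50 derived by four-parameter Hill fit of percent inhibition of depolarization, measured as peak F440-480/F565-625 ratio over baseline. Stable human Nav1.7 HEK293 cells, dye-loaded with CC2-DMPE and DiSBAC2(3)/VABSC-1 at room temperature, received compound 3 min ahead of veratridine (EC80) plus scorpion venom.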
human Nav1.7, sequence (Q15858 whole entry): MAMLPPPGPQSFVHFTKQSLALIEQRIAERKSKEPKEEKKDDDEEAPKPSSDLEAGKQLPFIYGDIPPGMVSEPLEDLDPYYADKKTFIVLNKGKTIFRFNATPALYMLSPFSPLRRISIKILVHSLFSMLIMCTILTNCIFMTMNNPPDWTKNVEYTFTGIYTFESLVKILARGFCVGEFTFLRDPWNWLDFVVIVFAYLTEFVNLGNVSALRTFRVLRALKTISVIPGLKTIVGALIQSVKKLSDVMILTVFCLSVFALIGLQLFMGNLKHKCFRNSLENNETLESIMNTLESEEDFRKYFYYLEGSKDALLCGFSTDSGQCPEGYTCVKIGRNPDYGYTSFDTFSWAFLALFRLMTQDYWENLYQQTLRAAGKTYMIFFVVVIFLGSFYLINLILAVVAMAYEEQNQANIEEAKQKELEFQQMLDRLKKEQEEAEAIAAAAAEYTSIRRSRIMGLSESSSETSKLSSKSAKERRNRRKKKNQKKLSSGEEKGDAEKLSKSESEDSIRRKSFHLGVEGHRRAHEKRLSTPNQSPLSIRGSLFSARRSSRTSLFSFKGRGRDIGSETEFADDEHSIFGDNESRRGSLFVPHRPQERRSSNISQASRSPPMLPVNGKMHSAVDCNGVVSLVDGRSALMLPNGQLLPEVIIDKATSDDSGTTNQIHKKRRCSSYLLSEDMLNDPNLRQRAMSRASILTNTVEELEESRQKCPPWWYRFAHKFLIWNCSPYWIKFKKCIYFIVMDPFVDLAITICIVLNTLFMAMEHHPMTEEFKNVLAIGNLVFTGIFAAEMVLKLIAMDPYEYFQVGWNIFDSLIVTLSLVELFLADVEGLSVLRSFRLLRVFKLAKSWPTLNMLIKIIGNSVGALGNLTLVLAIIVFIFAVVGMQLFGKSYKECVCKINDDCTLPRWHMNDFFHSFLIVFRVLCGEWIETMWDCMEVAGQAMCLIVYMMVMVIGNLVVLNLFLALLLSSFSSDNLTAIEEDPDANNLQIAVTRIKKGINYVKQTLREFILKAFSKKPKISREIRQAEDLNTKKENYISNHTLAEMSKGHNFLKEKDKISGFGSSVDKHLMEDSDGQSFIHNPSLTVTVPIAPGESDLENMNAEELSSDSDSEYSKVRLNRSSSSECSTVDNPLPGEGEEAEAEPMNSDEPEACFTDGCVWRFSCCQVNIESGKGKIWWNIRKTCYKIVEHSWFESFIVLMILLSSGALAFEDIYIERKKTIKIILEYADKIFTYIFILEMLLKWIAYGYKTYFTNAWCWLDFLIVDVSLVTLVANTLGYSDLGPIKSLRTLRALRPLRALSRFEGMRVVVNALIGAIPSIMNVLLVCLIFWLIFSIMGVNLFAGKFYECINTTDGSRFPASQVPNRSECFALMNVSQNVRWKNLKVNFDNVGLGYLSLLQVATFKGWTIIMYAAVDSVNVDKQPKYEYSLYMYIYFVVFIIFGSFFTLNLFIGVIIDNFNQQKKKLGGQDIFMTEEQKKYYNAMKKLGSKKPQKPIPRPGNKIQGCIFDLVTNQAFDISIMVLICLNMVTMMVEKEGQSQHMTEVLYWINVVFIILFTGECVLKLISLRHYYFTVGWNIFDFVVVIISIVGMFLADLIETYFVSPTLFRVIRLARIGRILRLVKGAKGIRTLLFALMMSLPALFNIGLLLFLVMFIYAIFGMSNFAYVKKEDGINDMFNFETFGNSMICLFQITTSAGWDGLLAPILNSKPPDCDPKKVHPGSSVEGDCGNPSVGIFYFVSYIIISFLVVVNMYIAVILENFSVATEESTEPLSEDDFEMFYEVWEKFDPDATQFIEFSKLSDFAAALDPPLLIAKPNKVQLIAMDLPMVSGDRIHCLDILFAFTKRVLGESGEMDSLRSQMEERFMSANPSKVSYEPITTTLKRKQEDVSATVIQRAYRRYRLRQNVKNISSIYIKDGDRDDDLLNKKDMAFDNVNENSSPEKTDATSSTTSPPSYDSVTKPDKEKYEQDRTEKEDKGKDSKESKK
`O=C(Nc1ccccc1)[C@H]1CCCN1C(=O)CN1CCN(c2cccc3c2cnn3-c2ccccc2F)C1=O` [Example 120, 1-({3-[1-(2-fluorophenyl)-1H-indazol-4-yl]-2-oxoimidazolidin-1-yl}acetyl)-N-phenyl-D-prolinamide]: the IC50 is 4180 nM.

For the compound `O=C1N(CC(=O)N2C[C@H](O)C[C@@H]2c2cc(F)ccc2F)CCN1c1cccc2c1cnn2-c1ccccc1F` [Example 121, 1-{2-[(2R,4R)-2-(2,5-difluorophenyl)-4-hydroxypyrrolidin-1-yl]-2-oxoethyl}-3-[1-(2-fluorophenyl)-1H-indazol-4-yl]imidazolidin-2-one], the IC50 came to 2410 nM.

Consider `O=C1N(CC(=O)N2C[C@@H](O)C[C@@H]2c2cc(F)ccc2F)CCN1c1cccc2c1cnn2-c1ccccc1F` [Example 122, 1-{2-[(2R,4S)-2-(2,5-difluorophenyl)-4-hydroxypyrrolidin-1-yl]-2-oxoethyl}-3-[1-(2-fluorophenyl)-1H-indazol-4-yl]imidazolidin-2-one], for which the IC50 was determined as 2300 nM.

For the compound `CC(C)CC(O)CN1CCN(c2cccc3c2cnn3-c2ccccc2F)C1=O` (centres unmarked) [Example 123, 1-[1-(2-fluorophenyl)-1H-indazol-4-yl]-3-(2-hydroxy-4-methylpentyl)imidazolidin-2-one], the IC50 is 346 nM.

Regarding `CC(C)[C@H]1CCCCN1C(=O)CN1CCN(c2cccc3c2cnn3-c2ccccc2F)C1=O` [Example 124, 1-[1-(2-fluorophenyl)-1H-indazol-4-yl]-3-{2-[(2R)-2-isopropylpiperidin-1-yl]-2-oxoethyl}imidazolidin-2-one], the half-inhibitory concentration (IC50) was determined as 1200 nM.

`CC(C)[C@@H]1CCCN1C(=O)CN1CCN(c2cccc3c2cnn3-c2ccccc2F)C1=O` [Example 125, 1-[1-(2-fluorophenyl)-1H-indazol-4-yl]-3-{2-[(2S)-2-isopropylpyrrolidin-1-yl]-2-oxoethyl}imidazolidin-2-one]: the IC50 was 1410 nM.

In the case of `CC(C)[C@H]1CCCN1C(=O)CN1CCN(c2cccc3c2cnn3-c2ccccc2F)C1=O` [Example 126, 1-[1-(2-fluorophenyl)-1H-indazol-4-yl]-3-{2-[(2R)-2-isopropylpyrrolidin-1-yl]-2-oxoethyl}imidazolidin-2-one], the IC50 is 343 nM.

As for `O=C1N(CC(=O)N2C[C@H](F)C[C@@H]2c2cc(F)ccc2F)CCN1c1cccc2c1cnn2-c1ccccc1F` [Example 127, 1-{2-[(2R,4R)-2-(2,5-difluorophenyl)-4-fluoropyrrolidin-1-yl]-2-oxoethyl}-3-[1-(2-fluorophenyl)-1H-indazol-4-yl]imidazolidin-2-one], the IC50 worked out at 1560 nM.

As to `O=C1N(CC(=O)N2CCC[C@@H]2c2ccccc2)CCN1c1cccc2c1cnn2-c1ccccc1F` [Example 128, 1-[1-(2-fluorophenyl)-1H-indazol-4-yl]-3-{2-oxo-2-[(2R)-2-phenylpyrrolidin-1-yl]ethyl}imidazolidin-2-one], the IC50 came out at 746 nM.

In the case of `O=C1N(CC(=O)N2CCCC2c2ccccc2)CCN1c1cccc2c1cnn2-c1ccccc1F` (centres unmarked) [Example 129, 1-[1-(2-fluorophenyl)-1H-indazol-4-yl]-3-[2-oxo-2-(2-phenylpyrrolidin-1-yl)ethyl]imidazolidin-2-one], the IC50 stood at 403 nM.

Take `O=C1N(c2ccccn2)CCN1c1cccc2c1cnn2-c1ccccc1F` [Example 130, 1-[1-(2-fluorophenyl)-1H-indazol-4-yl]-3-(pyridin-2-yl)imidazolidin-2-one]: the IC50 was 1850 nM.

On to `O=C(OC1CCCCC1)N1CCN(c2cccc3c2cnn3-c2ccccc2F)C1=O` [Example 131, cyclohexyl 3-[1-(2-fluorophenyl)-1H-indazol-4-yl]-2-oxoimidazolidine-1-carboxylate], for which the IC50 is 286 nM.

Regarding `CC(C)CCCC(=O)CN1CCN(c2cccc3c2cnn3-c2ccccc2F)C1=O` [Example 132, 1-[1-(2-fluorophenyl)-1H-indazol-4-yl]-3-(6-methyl-2-oxoheptyl)imidazolidin-2-one], the IC50 amounted to 713 nM.

For the compound `CC(C)CCCC(O)CN1CCN(c2cccc3c2cnn3-c2ccccc2F)C1=O` (centres unmarked) [Example 133, 1-[1-(2-fluorophenyl)-1H-indazol-4-yl]-3-(2-hydroxy-6-methylheptyl)imidazolidin-2-one], the IC50 stood at 525 nM.

For the compound `O=C(CC1CCCC1)CN1CCN(c2cccc3c2cnn3-c2ccccc2F)C1=O` [Example 134, 1-(3-cyclopentyl-2-oxopropyl)-3-[1-(2-fluorophenyl)-1H-indazol-4-yl]imidazolidin-2-one], the IC50 is 1260 nM.

As for `O=C1N(CC(O)CC2CCCC2)CCN1c1cccc2c1cnn2-c1ccccc1F` (centres unmarked) [Example 135, 1-(3-cyclopentyl-2-hydroxypropyl)-3-[1-(2-fluorophenyl)-1H-indazol-4-yl]imidazolidin-2-one], the IC50 was 904 nM.

For the compound `O=C(CC1CCCCC1)CN1CCN(c2cccc3c2cnn3-c2ccccc2F)C1=O` [Example 136, 1-(3-cyclohexyl-2-oxopropyl)-3-[1-(2-fluorophenyl)-1H-indazol-4-yl]imidazolidin-2-one], the IC50 worked out at 928 nM.

Turning to `O=C(OC1CCCC1)N1CCN2C(=O)N(c3cccc4c3cnn4-c3ccccc3F)CC2C1` (centres unmarked) [Example 137, cyclopentyl 2-[1-(2-fluorophenyl)-1H-indazol-4-yl]-3-oxohexahydroimidazo[1,5-a]pyrazine-7(1H)-carboxylate], the IC50 turned out to be 2300 nM.

Regarding `O=C1N(c2cncnc2)CCN1c1cccc2c1cnn2-c1ccccc1F` [Example 138, 1-[1-(2-fluorophenyl)-1H-indazol-4-yl]-3-(pyrimidin-5-yl)imidazolidin-2-one], the IC50 was 3310 nM.

As for `O=C1N(CC(O)CC2CCCCC2)CCN1c1cccc2c1cnn2-c1ccccc1F` (centres unmarked) [Example 139, 1-(3-cyclohexyl-2-hydroxypropyl)-3-[1-(2-fluorophenyl)-1H-indazol-4-yl]imidazolidin-2-one], the IC50 is 2410 nM.

`O=C(CC1CCC1)CN1CCN(c2cccc3c2cnn3-c2ccccc2F)C1=O` [Example 140, 1-(3-cyclobutyl-2-oxopropyl)-3-[1-(2-fluorophenyl)-1H-indazol-4-yl]imidazolidin-2-one]: the half-maximal inhibitory concentration (IC50) stood at 878 nM.

`O=C1N(CC(O)CC2CCC2)CCN1c1cccc2c1cnn2-c1ccccc1F` (centres unmarked) [Example 141, 1-(3-cyclobutyl-2-hydroxypropyl)-3-[1-(2-fluorophenyl)-1H-indazol-4-yl]imidazolidin-2-one]: the IC50 was determined as 1160 nM.

Regarding `O=C(CC1CC2CCC1C2)CN1CCN(c2cccc3c2cnn3-c2ccccc2F)C1=O` (centres unmarked) [Example 142, 1-[3-(bicyclo[2.2.1]hept-2-yl)-2-oxopropyl]-3-[1-(2-fluorophenyl)-1H-indazol-4-yl]imidazolidin-2-one], the IC50 turned out to be 2000 nM.

In the case of `O=C(CN1CCN(c2cccc3c2cnn3-c2ccccc2F)C1=O)c1ccccc1` [Example 143, 1-[1-(2-fluorophenyl)-1H-indazol-4-yl]-3-(2-oxo-2-phenylethyl)imidazolidin-2-one], the IC50 worked out at 874 nM.

Take `O=C(CN1CCN(c2cccc3c2cnn3-c2ccccc2F)C1=O)C1CCCC1` [Example 144, 1-(2-cyclopentyl-2-oxoethyl)-3-[1-(2-fluorophenyl)-1H-indazol-4-yl]imidazolidin-2-one]: the IC50 was 2100 nM.

For the compound `CC(=O)CN1CCN(c2cccc3c2cnn3-c2ccccc2F)C1=O` [Example 145, 1-[1-(2-fluorophenyl)-1H-indazol-4-yl]-3-(2-oxopropyl)imidazolidin-2-one], the half-maximal inhibitory concentration (IC50) was found to be 6230 nM.

Turning to `C=CCCC(C)(O)CN1CCN(c2cccc3c2cnn3-c2ccccc2F)C1=O` (centres unmarked) [Example 146, 1-[1-(2-fluorophenyl)-1H-indazol-4-yl]-3-(2-hydroxy-2-methylhex-5-en-1-yl)imidazolidin-2-one], the IC50 was determined as 3120 nM.

Regarding `O=C(CN1CCN(c2cccc3c2cnn3-c2ccccc2F)C1=O)c1ccc(F)nc1` [Example 147, 1-[1-(2-fluorophenyl)-1H-indazol-4-yl]-3-[2-(6-fluoropyridin-3-yl)-2-oxoethyl]imidazolidin-2-one], the IC50 is 1050 nM.

For the compound `CCC(O)(CC(C)C)CN1CCN(c2cccc3c2cnn3-c2ccccc2F)C1=O` (centres unmarked) [Example 148, 1-(2-ethyl-2-hydroxy-4-methylpentyl)-3-[1-(2-fluorophenyl)-1H-indazol-4-yl]imidazolidin-2-one], the IC50 was determined as 2280 nM.

Turning to `COc1cccc(C(=O)CN2CCN(c3cccc4c3cnn4-c3ccccc3F)C2=O)c1` [Example 149, 1-[1-(2-fluorophenyl)-1H-indazol-4-yl]-3-[2-(3-methoxyphenyl)-2-oxoethyl]imidazolidin-2-one], the IC50 is 2970 nM.

As to `O=C(CN1CCN(c2cccc3c2cnn3-c2ccccc2F)C1=O)c1cccc(F)c1` [Example 150, 1-[1-(2-fluorophenyl)-1H-indazol-4-yl]-3-[2-(3-fluorophenyl)-2-oxoethyl]imidazolidin-2-one], the IC50 was found to be 3160 nM.

For the compound `O=C(CN1CCN(c2cccc3c2cnn3-c2ccccc2F)C1=O)c1ccc(C(F)(F)F)cc1` [Example 151, 1-[1-(2-fluorophenyl)-1H-indazol-4-yl]-3-{2-oxo-2-[4-(trifluoromethyl)phenyl]ethyl}imidazolidin-2-one], the IC50 stood at 20000 nM.

`O=C(CN1CCN(c2cccc3c2cnn3-c2ccccc2F)C1=O)c1cccnc1` [Example 152, 1-[1-(2-fluorophenyl)-1H-indazol-4-yl]-3-[2-oxo-2-(pyridin-3-yl)ethyl]imidazolidin-2-one]: the IC50 stood at 2260 nM.

With `O=C(CN1CCN(c2cccc3c2cnn3-c2ccccc2F)C1=O)c1ccc2c(c1)OCO2` [Example 153, 1-[2-(1,3-benzodioxol-5-yl)-2-oxoethyl]-3-[1-(2-fluorophenyl)-1H-indazol-4-yl]imidazolidin-2-one], the IC50 stood at 1320 nM.

`O=C1N(c2cnccc2F)CCN1c1cccc2c1cnn2-c1ccccc1F` [Example 154, 1-[1-(2-fluorophenyl)-1H-indazol-4-yl]-3-(4-fluoropyridin-3-yl)imidazolidin-2-one]: the IC50 came to 2870 nM.
